Reference: patent publication US4515942A, “Antibiotics KA-6606 XII, XIII, XV, XVI and XVII” (Kowa Company, Ltd., priority 1980, dated 1985)

Key:
[1] = test system: Staphylococcus aureus 209P; assay: disc plate method (Table 1); assay type: cell-based; settings: 1 mg/ml, paper disc 8 mm
Source text: (§1) Tables 1 and 2 show the antibacterial spectra of the antibiotics KA-6606 VII to KA-6606 XVII against various bacteria, determined by the disc plate method, in comparison with the KA-6606 II substance. Each of the chemicals is used as impregnated in a paper disc having a diameter of 8 mm.

Pseudomonas aeruginosa = assay: disc plate method (Table 1); assay type: cell-based; settings: 1 mg/ml, paper disc 8 mm, read-out: Inhibition zone (diameter)
Source text: as §1

[2] = test system: Bacillus subtilis ATCC 6633; assay: disc plate method (Table 1); assay type: cell-based; settings: paper disc 8 mm, Bacillus subtilis ATCC 6633 (Table 1)
Source text: as §1

Escherichia coli NIHJ = assay: disc plate method (Table 1); assay type: cell-based; settings: 1 mg/ml, paper disc 8 mm
Source text: as §1

Serratia marcescens = assay: disc plate method (Table 1); assay type: cell-based; settings: 1 mg/ml, paper disc 8 mm
Source text: as §1

Proteus vulgaria = assay: disc plate method (Table 1); assay type: cell-based; settings: 1 mg/ml, paper disc 8 mm
Source text: as §1

Klebsiella pneumoniae = assay: disc plate method (Table 1); assay type: cell-based; settings: 1 mg/ml, paper disc 8 mm
Source text: as §1

Proteus inconstans = assay: disc plate method (Table 1); assay type: cell-based; settings: 1 mg/ml; paper disc 8 mm; Proteus inconstans (Table 1)
Source text: as §1

Solubility in solvents = assay type: physicochemical
Stability = assay type: physicochemical; settings: pH range in which stable
[3] = read-out: Inhibition zone (diameter)

CNC1C(OC)CC(N)C(OC2OC(C(C)N)CCC2N)C1O (stereo not shown) [KA-6606 VIII]
Inhibition zone (diameter) [1]: 13.5 mm
zone of inhibition at 1000 µg/mL (Pseudomonas aeruginosa): 17.3 mm
Inhibition zone (diameter) ([2]; 1 mg/ml): 26.2 mm
Inhibition zone (diameter) (Escherichia coli NIHJ): 21.9 mm
Inhibition zone (diameter) (Serratia marcescens): 19.7 mm
Inhibition zone (diameter) (Proteus vulgaria): 23.3 mm
Inhibition zone (diameter) (Klebsiella pneumoniae): 18.8 mm
Inhibition zone (diameter) (Proteus inconstans): 18.9 mm
Solubility in solvents: chloroform (Solubility in solvents): Insoluble
Solubility in solvents: ethyl acetate (Solubility in solvents): Insoluble
Solubility in solvents: methanol (Solubility in solvents): Easily soluble
Solubility in solvents: water (Solubility in solvents): Easily soluble
Stability (stable at pH) (Stability): 2-10 pH

CNC1C(OC)CC(N)C(OC2OC(C(C)N)CCC2N)C1O (stereo not shown) [KA-6606 VII]
zone of inhibition at 1000 µg/mL ([1]; Staphylococcus aureus, 209P, read-out: Inhibition zone (diameter)): 9.3 mm
zone of inhibition at 1000 µg/mL ([2]; Bacillus subtilis, ATCC6633, 1 mg/ml, read-out: Inhibition zone (diameter)): 17.8 mm
zone of inhibition at 1000 µg/mL (Escherichia coli NIHJ; Escherichia coli, read-out: Inhibition zone (diameter)): 17.5 mm
zone of inhibition at 1000 µg/mL (Serratia marcescens; [3]): 15.1 mm
zone of inhibition at 1000 µg/mL (Proteus vulgaria; [3]): 20.1 mm
Inhibition zone (diameter) (Klebsiella pneumoniae): 9.0 mm
Inhibition zone (diameter) (Proteus inconstans): 9.0 mm
Solubility in solvents: chloroform (Solubility in solvents): Insoluble
Solubility in solvents: ethyl acetate (Solubility in solvents): Insoluble
Solubility in solvents: methanol (Solubility in solvents): Easily soluble
Solubility in solvents: water (Solubility in solvents): Easily soluble
Stability (stable at pH) (Stability): 2-10 pH
